From patent US10743544B2, “Method for inactivating Cronobacter sakazakii” (priority 2015, dated 2020) come the findings set out here.

Entries after “also recorded” stand apart in the source; their conditions may differ.

Series [1] has as its system Cronobacter sakazakii strains ES45, ES46, ES37, and ES39. The series can be described thus: Tolerance of C. sakazakii to different natural extracts in PIF, plate count (FIG. 1). The settings on record: 0.5% in PIF, pH not adjusted, four strains; for growth trend of C. sakazakii (plate count): 37° C., up to 7 hours. The format is cell-based. As for the experimental part:
(§1) A commercial PIF (Wondersun, Harbin, Hei Longjiang Province, China) was purchased and reconstituted according to the manufacturer's instruction. Briefly, 15 g of the PIF was reconstituted in 100 mL of sterile distilled water. 5 mg/mL TP, malic acid, citric acid or ascorbic acid (VC) was added to the rehydrated PIF, and shaken gently to make sure that it was fully dissolved. A pH meter was used to determine the pH of all the solutions. The initial pH of rehydrated PIF was 6.82 and it dropped to pH 3.62, pH 3.55, pH 4.55 and pH 6.46 after added 5 mg/mL malic acid, citric acid, VC and TP, respectively. The final concentration of the natural extract solutions was 0.5% and the milk powder solutions were packed into different test tubes with 9 ml solution in each tube. Milk powder solution without any natural extract product was used as the control group.
1 mL of 8.0 Log CFU/mL cell suspensions of four C. sakazakii strains were separately added to 9 mL rehydrated PIF with different natural extracts prepared above to obtain final concentrations of approximately 7.0 Log CFU/mL. The cell suspensions with different natural extracts were incubated at 37° C. for 1, 3, 5 and 7 hours, and mixed to make sure that the solutions were homogeneous. After serial dilution with NS, 0.1 mL of appropriately diluted cultures were spread-plated on TSA plates and incubated upside down at 37° C. overnight to observe the growth of Cronobacter sakazakii.
The tolerance of four different ST types of Cronobacter sakazakii to different natural extracts was studied by serial dilution plate count method. The cell suspensions were separately added to PIF containing 0.5% tea polyphenols, 0.5% VC, 0.5% malic acid or 0.5% citric acid. The pH of each solution was measured using a pH meter and the plate count analysis was carried out at different time points of incubation.

Series [2] concerns Cronobacter sakazakii strains ES45, ES46, ES37 and ES39. The series can be described thus: Tolerance of C. sakazakii to acidified natural extracts in PIF, pH 3.55 (FIG. 2). The format is cell-based. The settings on record: 0.5% in PIF, pH 3.55 versus unadjusted pH. As for the experimental part:
A commercial PIF (Wondersun, Harbin, Hei Longjiang Province, China) was purchased and reconstituted according to the manufacturer's instruction. Briefly, 15 g of the PIF was reconstituted in 100 mL of sterile distilled water. 5 mg/mL TP was added to the rehydrated PIF and shaken gently to make sure it was fully dissolved. As controls, malic acid, citric acid and VC were dissolved in PIF in the same way as that of TP. A pH meter was used to determine the pH of all solutions. The initial pH of rehydrated PIF was 6.82 and the value of pH dropped to pH 3.62, pH 3.55, pH 4.55 and pH 6.46 after addition of 5 mg/mL malic acid, citric acid, VC and TP, respectively. The final concentration of the natural extract solutions was 0.5% (w/v) and PIF solutions were packed into different test tubes, each tube with 9 mL solution. PIF solution without adding additional substance was used as the blank control group.
In order to eliminate the effect of pH on the growth of Cronobacter sakazakii, it is necessary to adjust the pH for each treatment group to be the same. The pH of all the treatment groups was adjusted to pH 3.55 with 4 M HCl and 4M NaOH, which was the minimum pH of all the treatment solutions. The PIF acidified with HCl was used as the control. 1 mL of 8.0 Log CFU/mL cell suspensions of the four C. sakazakii strains were separately added to 9 mL acidified PIF with different natural extracts. […]

Series [3] is described as follows: pH of rehydrated PIF after addition of natural extract (pH meter). Type of series: physicochemical. As to conditions: 5 mg/mL added to rehydrated PIF (initial pH 6.82). As for the experimental part: as §1

For the compound `O=C1O[C@H]([C@@H](O)CO)C(O)=C1O` [VC, ascorbic acid], in series [1], the “growth trend of C. sakazakii (plate count)” value (shortened to “growth trend of C. sakazakii”) was “slower growth trend” and the “antibacterial effect in PIF” value is given as “not obvious”. Besides, the “antibacterial/inhibitory effect after acidification compared with before” value in series [2] is “stronger antibacterial activity than before the treatment”. Further, the “pH of rehydrated PIF after addition” value in series [3] was 4.55.
Turning to `O=C(O)CC(O)(CC(=O)O)C(=O)O` [citric acid], in series [1], the “growth trend of C. sakazakii” value is “downward trend” and the “antibacterial effect in PIF” value is “some antibacterial effect”. In series [2], the “antibacterial/inhibitory effect after acidification compared with before” value is on record as “not significantly different; also recorded: not significant”. For the same compound, the “pH of rehydrated PIF after addition” value in series [3] is on record as 3.55.
As to `O=C(O)CC(O)C(=O)O` (centres unmarked) [malic acid], in series [1], the “growth trend of C. sakazakii” value is recorded as “did not change much” and the “antibacterial effect in PIF” value is given as “not obvious”. Also, the “pH of rehydrated PIF after addition” value in series [3] is given as 3.62.
